Reference: ChEMBL document CHEMBL2016493, “Design, synthesis, synergistic antimicrobial activity and cytotoxicity of 4-aryl substituted 3,4-dihydropyrimidinones of curcumin” (Bioorg Med Chem Lett, 2012)
Calls of active or inactive are those of the source. No cut-off for these calls is given here.

Tests used:
Aspergillus niger [1] = assay: Antifungal activity against Aspergillus niger MTCC 1108 at 160 uM/ml after 48 hrs by paper disc diffusion method; format: functional; settings: for zone of inhibition at 160 µM: MTCC 1108, 48 h, read-out: IZ
Aspergillus niger [2] = assay: Antifungal activity against Aspergillus niger MTCC 1108 at 40 uM/ml after 48 hrs by paper disc diffusion method; format: functional
Escherichia coli [3] = assay: Antibacterial activity against Escherichia coli ATCC 35218 at 40 uM/ml after 24 hrs by kirby-bauer method; format: functional; settings: for zone of inhibition at 40 µM: ATCC 35218, 24 h, read-out: IZ
Escherichia coli [4] = assay: Antibacterial activity against Escherichia coli ATCC 35218 at 160 uM/ml after 24 hrs by kirby-bauer method; format: functional; settings: ATCC 35218, 24 h, read-out: IZ
[5] = system: Burkholderia pseudomallei; assay: Antibacterial activity against Burkholderia pseudomallei NTCC 10274 at 20 uM/ml after 24 hrs by kirby-bauer method; format: functional; settings: for zone of inhibition at 20 µM: NTCC 10274, 24 h, read-out: IZ
Aspergillus flavus [6] = assay: Antifungal activity against Aspergillus flavus MTCC 1021 at 40 uM/ml after 48 hrs by paper disc diffusion method; format: functional
Curvularia lunata [7] = assay: Antifungal activity against Curvularia lunata MTCC 581 at 80 uM/ml after 48 hrs by paper disc diffusion method; format: functional; settings: MTCC 581, 48 h, read-out: IZ
[8] = system: Burkholderia pseudomallei; assay: Antibacterial activity against Burkholderia pseudomallei NTCC 10274 at 80 uM/ml after 24 hrs by kirby-bauer method; format: functional; settings: NTCC 10274, 24 h, read-out: IZ
Aspergillus flavus [9] = assay: Antifungal activity against Aspergillus flavus MTCC 1021 at 80 uM/ml after 48 hrs by paper disc diffusion method; format: functional
[10] = system: Burkholderia pseudomallei; assay: Antibacterial activity against Burkholderia pseudomallei NTCC 10274 at 160 uM/ml after 24 hrs by kirby-bauer method; format: functional; settings: NTCC 10274, 24 h, read-out: IZ
Staphylococcus aureus = assay: Antibacterial activity against Staphylococcus aureus ATCC 11632 at 160 uM/ml after 24 hrs by kirby-bauer method; format: functional
QG-56 = assay: Cytotoxicity against human QG56 cells after 48 hrs by MTT assay; format: functional, cell-based
Trichoderma viride [11] = assay: Antifungal activity against Trichoderma viride MTCC 1107 at 80 uM/ml after 48 hrs by paper disc diffusion method; format: functional; settings: MTCC 1107, 48 h, read-out: IZ
Aspergillus niger [12] = assay: Antifungal activity against Aspergillus niger MTCC 1108 at 80 uM/ml after 48 hrs by paper disc diffusion method; format: functional; settings: MTCC 1108, 48 h, read-out: IZ
Salmonella typhimurium [13] = assay: Antibacterial activity against Salmonella typhimurium ATCC 23564 at 160 uM/ml after 24 hrs by kirby-bauer method; format: functional; settings: for inhibition zone (IZ): Salmonella enterica subsp. enterica serovar Typhimurium; for zone of inhibition at 160 µM: Salmonella enterica, ATCC 23564, 24 h, read-out: IZ
[14] = system: Burkholderia pseudomallei; assay: Antibacterial activity against Burkholderia pseudomallei NTCC 10274 at 40 uM/ml after 24 hrs by kirby-bauer method; format: functional; settings: for zone of inhibition at 40 µM: NTCC 10274, 24 h, read-out: IZ
Aspergillus flavus [15] = assay: Antifungal activity against Aspergillus flavus MTCC 1021 at 20 uM/ml after 48 hrs by paper disc diffusion method; format: functional
Escherichia coli [16] = assay: Antibacterial activity against Escherichia coli ATCC 35218 at 80 uM/ml after 24 hrs by kirby-bauer method; format: functional; settings: ATCC 35218, 24 h, read-out: IZ
Curvularia lunata [17] = assay: Antifungal activity against Curvularia lunata MTCC 581 at 20 uM/ml after 48 hrs by paper disc diffusion method; format: functional; settings: MTCC 581, 48 h, read-out: IZ
Trichoderma viride [18] = assay: Antifungal activity against Trichoderma viride MTCC 1107 at 20 uM/ml after 48 hrs by paper disc diffusion method; format: functional; settings: MTCC 1107, 48 h, read-out: IZ
Curvularia lunata [19] = assay: Antifungal activity against Curvularia lunata MTCC 581 at 160 uM/ml after 48 hrs by paper disc diffusion method; format: functional; settings: MTCC 581, 48 h, read-out: IZ
Aspergillus niger [20] = assay: Antifungal activity against Aspergillus niger MTCC 1108 at 20 uM/ml after 48 hrs by paper disc diffusion method; format: functional
Escherichia coli [21] = assay: Antibacterial activity against Escherichia coli ATCC 35218 at 20 uM/ml after 24 hrs by kirby-bauer method; format: functional
Pseudomonas aeruginosa [22] = assay: Antibacterial activity against Pseudomonas aeruginosa ATCC 15499 at 20 uM/ml after 24 hrs by kirby-bauer method; format: functional; settings: for zone of inhibition at 20 µM: ATCC 15499, 24 h, read-out: IZ
Pseudomonas aeruginosa [23] = assay: Antibacterial activity against Pseudomonas aeruginosa ATCC 15499 at 160 uM/ml after 24 hrs by kirby-bauer method; format: functional; settings: for zone of inhibition at 160 µM: ATCC 15499, 24 h, read-out: IZ
Trichoderma viride [24] = assay: Antifungal activity against Trichoderma viride MTCC 1107 at 160 uM/ml after 48 hrs by paper disc diffusion method; format: functional; settings: MTCC 1107, 48 h, read-out: IZ
Curvularia lunata [25] = assay: Antifungal activity against Curvularia lunata MTCC 581 at 40 uM/ml after 48 hrs by paper disc diffusion method; format: functional; settings: MTCC 581, 48 h, read-out: IZ
Pseudomonas aeruginosa [26] = assay: Antibacterial activity against Pseudomonas aeruginosa ATCC 15499 at 40 uM/ml after 24 hrs by kirby-bauer method; format: functional; settings: for zone of inhibition at 40 µM: ATCC 15499, 24 h, read-out: IZ
Pseudomonas aeruginosa [27] = assay: Antibacterial activity against Pseudomonas aeruginosa ATCC 15499 at 80 uM/ml after 24 hrs by kirby-bauer method; format: functional; settings: for zone of inhibition at 80 µM: ATCC 15499, 24 h, read-out: IZ
Aspergillus flavus [28] = assay: Antifungal activity against Aspergillus flavus MTCC 1021 at 160 uM/ml after 48 hrs by paper disc diffusion method; format: functional
Trichoderma viride [29] = assay: Antifungal activity against Trichoderma viride MTCC 1107 at 40 uM/ml after 48 hrs by paper disc diffusion method; format: functional; settings: MTCC 1107, 48 h, read-out: IZ
Salmonella typhimurium [30] = assay: Antibacterial activity against Salmonella typhimurium ATCC 23564 at 40 uM/ml after 24 hrs by kirby-bauer method; format: functional, Salmonella enterica subsp. enterica serovar Typhimurium
Salmonella typhimurium [31] = assay: Antibacterial activity against Salmonella typhimurium ATCC 23564 at 20 uM/ml after 24 hrs by kirby-bauer method; format: functional, Salmonella enterica subsp. enterica serovar Typhimurium
Salmonella typhimurium [32] = assay: Antibacterial activity against Salmonella typhimurium ATCC 23564 at 80 uM/ml after 24 hrs by kirby-bauer method; format: functional, Salmonella enterica subsp. enterica serovar Typhimurium; settings: Salmonella enterica, ATCC 23564, 24 h; read-out: IZ
[33] = Salmonella enterica, ATCC 23564, 24 h, read-out: IZ
[34] = Salmonella enterica subsp. enterica serovar Typhimurium

Row | SMILES | zone of inhibition at 160 µM (Aspergillus niger [1]) | inhibition zone (IZ) (Aspergillus niger [2]) | zone of inhibition at 160 µM (Escherichia coli [4]) | zone of inhibition at 20 µM [5] | zone of inhibition at 80 µM (Curvularia lunata [7]) | zone of inhibition at 80 µM [8] | IC50 (HCT-116) | zone of inhibition at 160 µM [10] | inhibition zone (IZ) (Staphylococcus aureus) | IC50 (QG-56) | zone of inhibition at 80 µM (Trichoderma viride [11]) | zone of inhibition at 80 µM (Aspergillus niger [12]) | zone of inhibition at 80 µM (Escherichia coli [16]) | zone of inhibition at 20 µM (Curvularia lunata [17]) | zone of inhibition at 20 µM (Trichoderma viride [18]) | zone of inhibition at 160 µM (Curvularia lunata [19]) | IC50 (HepG2) | zone of inhibition at 160 µM (Trichoderma viride [24]) | zone of inhibition at 40 µM (Curvularia lunata [25]) | zone of inhibition (Trichoderma viride [29]) | further results
1 | COc1ccc(C2NC(=S)NC(/C=C/c3ccc(O)c(OC)c3)=C2C(=O)/C=C/c2ccc(O)c(OC)c2)cc1 (stereo unspecified) | 11 mm | inactive | 18 mm | 16 mm | 21 mm | 21 mm | 50 uM/ml | 24 mm | inactive | 50 uM/ml | 19 mm | 9 mm | 14 mm | 16 mm | 17 mm | 24 mm | 100 uM/ml | 23 mm | 18 mm | 18 mm | zone of inhibition at 40 µM (Escherichia coli [3]): 9 mm; inhibition zone (IZ) (Aspergillus flavus [6]): inactive; inhibition zone (IZ) (Aspergillus flavus [9]): inactive; inhibition zone (IZ) (Salmonella typhimurium [13]): inactive; zone of inhibition at 40 µM [14]: 19 mm; inhibition zone (IZ) (Aspergillus flavus [15]): inactive; inhibition zone (IZ) (Aspergillus niger [20]): inactive; inhibition zone (IZ) (Escherichia coli [21]): inactive; zone of inhibition at 20 µM (Pseudomonas aeruginosa [22]): 18 mm; zone of inhibition at 160 µM (Pseudomonas aeruginosa [23]): 23 mm; zone of inhibition at 40 µM (Pseudomonas aeruginosa [26]): 19 mm; zone of inhibition at 80 µM (Pseudomonas aeruginosa [27]): 20 mm; zone of inhibition at 160 µM (Aspergillus flavus [28]; MTCC 1021, 48 h, read-out: IZ): 9 mm
2 | COc1ccc(C2NC(=O)NC(/C=C/c3ccc(O)c(OC)c3)=C2C(=O)/C=C/c2ccc(O)c(OC)c2)cc1 (stereo unspecified) | 11 mm | inactive | 12 mm | 11 mm | 16 mm | 19 mm | 100 uM/ml | 23 mm | inactive | 50 uM/ml | 17 mm | 9 mm | 9 mm | 11 mm | 14 mm | 17 mm | 50 uM/ml | 19 mm | 14 mm | 16 mm | inhibition zone (IZ) (Escherichia coli [3]): inactive; inhibition zone (IZ) (Salmonella typhimurium [13]): inactive; zone of inhibition at 40 µM [14]: 15 mm; inhibition zone (IZ) (Aspergillus niger [20]): inactive; inhibition zone (IZ) (Escherichia coli [21]): inactive; zone of inhibition at 20 µM (Pseudomonas aeruginosa [22]): 13 mm; zone of inhibition at 160 µM (Pseudomonas aeruginosa [23]): 23 mm; zone of inhibition at 40 µM (Pseudomonas aeruginosa [26]): 19 mm; zone of inhibition at 80 µM (Pseudomonas aeruginosa [27]): 21 mm; inhibition zone (IZ) (Aspergillus flavus [28]): inactive
3 | COc1cc(/C=C/C(=O)C2=C(/C=C/c3ccc(O)c(OC)c3)NC(=O)NC2c2ccc(O)c(OC)c2)ccc1O (stereo unspecified) |  |  | 19 mm | 10 mm | 18 mm | 16 mm | 100 uM/ml | 16 mm | inactive | 50 uM/ml | 18 mm |  | 17 mm | 13 mm | 15 mm | 21 mm | 25 uM/ml | 21 mm | 17 mm | 16 mm | inhibition zone (IZ) (Aspergillus niger [1]): inactive; zone of inhibition at 40 µM (Escherichia coli [3]): 14 mm; zone of inhibition at 40 µM (Salmonella typhimurium [30]; [33]): 16 mm; zone of inhibition at 160 µM (Salmonella typhimurium [13]): 22 mm; zone of inhibition at 40 µM [14]: 14 mm; zone of inhibition at 20 µM (Salmonella typhimurium [31]; [33]): 13 mm; zone of inhibition at 80 µM (Salmonella typhimurium [32]): 19 mm; zone of inhibition at 20 µM (Escherichia coli [21]; ATCC 35218, 24 h, read-out: IZ): 11 mm; inhibition zone (IZ) (Pseudomonas aeruginosa [23]): inactive; inhibition zone (IZ) (Aspergillus flavus [28]): inactive
4 | COc1cc(/C=C/C(=O)C2=C(/C=C/c3ccc(O)c(OC)c3)NC(=O)NC2c2ccc(C)cc2)ccc1O (stereo unspecified) | 12 mm | inactive | 11 mm |  | 18 mm | 9 mm | 50 uM/ml | 10 mm | inactive | 100 uM/ml | 16 mm | 9 mm | 9 mm | 12 mm | 12 mm | 22 mm | 50 uM/ml | 18 mm | 16 mm | 15 mm | inhibition zone (IZ) (Escherichia coli [3]): inactive; inhibition zone (IZ) [5]: inactive; inhibition zone (IZ) (Salmonella typhimurium [30]; [34]): inactive; zone of inhibition at 160 µM (Salmonella typhimurium [13]): 11 mm; inhibition zone (IZ) [14]: inactive; inhibition zone (IZ) (Salmonella typhimurium [31]; [34]): inactive; zone of inhibition at 80 µM (Salmonella typhimurium [32]): 9 mm; inhibition zone (IZ) (Aspergillus niger [20]): inactive; inhibition zone (IZ) (Escherichia coli [21]): inactive; inhibition zone (IZ) (Pseudomonas aeruginosa [22]): inactive; zone of inhibition at 160 µM (Pseudomonas aeruginosa [23]): 10 mm; inhibition zone (IZ) (Pseudomonas aeruginosa [26]): inactive; inhibition zone (IZ) (Pseudomonas aeruginosa [27]): inactive; inhibition zone (IZ) (Aspergillus flavus [28]): inactive
5 | COc1cccc2c1C(=O)c1c(O)c3c(c(O)c1C2=O)C[C@@](O)(C(=O)CO)C[C@@H]3O[C@H]1C[C@H](N)[C@H](O)[C@H](C)O1 [DOXORUBICIN] |  |  |  |  |  |  | 5 uM/ml |  |  | 2.5 uM/ml |  |  |  |  |  |  | 2.5 uM/ml |  |  |  | 
